Data as given in patent publication US8664220B2, “Polycyclic compounds as lysophosphatidic acid receptor antagonists” (Amira Pharmaceuticals, Inc., priority 2009, dated 2014).
One block for each compound: values may come before it.

Tests used:
nerve-injured mice = details: pretreatment; cited from earlier work
human LPA1 = molecular target: T1, human LPA1 (Homo sapiens, UniProt Q92633); assay: LPA1 calcium flux assay; assay type: cell-based; details: human LPA1 expressing CHO cells, stimulated with 10 nM LPA; read-out: HLPA1 Ca Flux IC50
T1 construct: the full-length cDNA for human LPA1 was obtained by PCR of the reverse transcription reaction; expressed in transfected cells
T1 sequence (Q92633 whole entry): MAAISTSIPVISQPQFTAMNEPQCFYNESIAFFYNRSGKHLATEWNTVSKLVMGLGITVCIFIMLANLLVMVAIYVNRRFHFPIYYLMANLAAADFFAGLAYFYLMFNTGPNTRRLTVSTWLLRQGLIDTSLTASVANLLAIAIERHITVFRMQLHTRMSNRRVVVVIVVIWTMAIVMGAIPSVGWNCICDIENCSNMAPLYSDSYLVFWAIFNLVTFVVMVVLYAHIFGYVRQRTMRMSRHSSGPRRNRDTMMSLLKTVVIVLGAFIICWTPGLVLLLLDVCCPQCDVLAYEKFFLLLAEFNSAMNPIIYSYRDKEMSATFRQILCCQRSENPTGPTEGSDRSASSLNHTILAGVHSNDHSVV
Outline: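 CHO cells stably expressing human LPA1, serum-starved overnight and loaded with Calcium 4 dye in HBSS/20 mM Hepes/0.3% fatty-acid-free HSA, 1 h at 37 °C. Compounds pre-incubated 30 min at room temperature, then 10 nM LPA added; intracellular Ca2+ flux measured and IC50 from titration curves.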

[1] = system: A2058 human melanoma cells; assay: LPA1 chemotaxis assay; assay type: cell-based; details: LPA 100 nM, read-out: IC50, inhibition of LPA-driven chemotaxis
Procedure: Chemotaxis of the A2058 human melanoma cells was measured using the Neuroprobe ChemoTx® System plates (8 μm pore size, 5.7 mm diameter sites). The filter sites were coated with 0.001% fibronectin (Sigma) in 20 mM Hepes, pH 7.4 and allowed to dry. A2058 cells were serum-starved for 24 hours, then harvested with Cell Stripper and resuspended in DMEM containing 0.1% fatty-acid-free bovine serum albumin (BSA) to a concentration of 1×10^6/ml. Cells were mixed with an equal volume of test compound (2×) in DMEM containing 0.1% fatty-acid-free BSA and incubated at 37° C. for 15 minutes. LPA (100 nM in DMEM containing 0.1% fatty-acid-free BSA) or vehicle was added to each well of the lower chamber and 50 μl of the cell suspension/test compound mix was applied to the upper portion of the ChemoTx plate. Plates were incubated at 37° C. for three hours and then the cells removed from the upper portion by rinsing with PBS and scraping. The filter was dried then stained with HEMA 3 Staining System (Fisher Scientific). The absorbance of the filter was read at 590 nm and IC50s were determined using Symyx Assay Explorer.

[2] = system: human foetal lung fibroblasts; details: cited from earlier work
[3] = system: pancreatic cancer cell lines; details: cited from earlier work
[4] = system: renal fibrosis, unilateral ureteral obstruction (UUO); details: UUO mice; cited from earlier work
[5] = system: mouse epithelial renal cell line, MCT; details: co-treatment with LPA, MCT cells; cited from earlier work
[6] = system: bleomycin-induced lung fibrosis; assay: Bleomycin-induced lung fibrosis model in mice; assay type: in vivo, mouse; details: acute setting (3 day)
Source text: Bleomycin-induced Lung Fibrosis Model in Mice Female CD-1 mice (Harlan, 25-30 g) are housed 4 per cage, given free access to food and water and allowed to acclimate for at least 7 days prior to test initiation. After the habituation phase, mice are lightly anesthetized with isoflurane (5% in 100% O2) and administered with bleomycin sulfate (0.01-5 U/kg, Henry Schein) via intratracheal instillation (Cuzzocrea S et al. Am J Physiol Lung Cell Mol Physiol. 2007 May; 292(5):[…]-104. Epub 2007 Jan. 12.). Mice are returned to their cages and monitored daily for the duration of the experiment. Test compound or vehicle is delivered po, ip or sc daily. The route and frequency of dosing is based on previously determined pharmacokinetic properties. […] BALF is analyzed for concentrations of inflammatory, pro-fibrotic and tissue injury biomarkers including transforming growth factor β1, hyaluronic acid, tissue inhibitor of metalloproteinase-1, matrix matelloproteinase-7, connective tissue growth factor and lactate dehydrogenase activity, using commercially available ELISA. […] Total cell counts are then obtained using a Hemavet hematology system (Drew Scientific, Wayne, Pa.) and differential cells counts are determined using Shandon cytospin (Thermo Scientific, Waltham, Mass.). […] The data are plotted using Graphpad prism and statistical differences between groups determined.

Structure (SMILES): C[C@@H](N)[C@H]1CC[C@H](C(=O)Nc2ccncc2)CC1 [Compound Y-27632]
allodynia and hyperalgesia (nerve-injured mice): completely abolished

IC50 (human LPA1): < 300 nM | IC50 [1]: < 100 nM
Structure (SMILES): Cc1noc(-c2ccc(-c3ccc(C4(C(=O)O)CC4)cc3)cc2)c1C(O)c1cn(Cc2ccccc2)nn1 (stereo not drawn) [Compound 1-25, 1-(4′-{4-[(1-Benzyl-1H-[1,2,3]triazol-4-yl)-hydroxy-methyl]-3-methyl-isoxazol-5-yl}-biphenyl-4-yl)-cyclopropanecarboxylic acid]

Structure (SMILES): Cc1noc(-c2ccc(CSCCC(=O)O)cc2)c1NC(=O)OC(C)c1ccccc1Cl (stereo not drawn) [Ki16425]
chemotaxis of human foetal lung fibroblasts induced by BAL from IPF patients [2]: blocked | LPA-induced and ascites-induced invasion activity ([3]; highly peritoneal metastatic pancreatic cancer cell line): blocked | in vitro migration in response to LPA and peritoneal fluid (ascites) from pancreatic cancer patients ([3]; pancreatic cancer cell lines): effectively blocked | development of renal fibrosis [4]: closely resembled the LPA1 (−/−) mice | LPA-induced increase in expression of the profibrotic cytokine CTGF [5]: almost completely suppressed

IC50 (human LPA1): < 300 nM | IC50 [1]: < 100 nM
Structure (SMILES): Cc1noc(-c2ccc(-c3ccc(C4(C(=O)O)CC4)cc3)cc2)c1C(O)c1cn(Cc2ccccc2)nn1 (single isomer, unassigned) [Compound 1-41, 1-(4′-{4-[(1-Benzyl-1H-[1,2,3]triazol-4-yl)-hydroxy-methyl]-3-methyl-isoxazol-5-yl}-biphenyl-4-yl)-cyclopropanecarboxylic acid]
collagen concentration in broncheoalveolar lavage fluid (BALF) [6]: significantly reduced | total protein concentration in broncheoalveolar lavage fluid (BALF) [6]: significantly reduced
